# In ChEMBL document CHEMBL2074525, “Screening of multidrug-resistance sensitive drugs by in situ brain perfusion in P-glycoprotein-deficient mice” (Pharm Res, 2001):
# Molecular target: ATP-dependent translocase ABCB1 (Mus musculus, UniProt P21447)
# Experiment: TP_TRANSPORTER: increase in blood-brain coefficient in mdr1a(-/-) mouse
# Assay type: functional, organism-based
# Settings: in vivo
# Chain of ATP-dependent translocase ABCB1 (P21447 whole entry): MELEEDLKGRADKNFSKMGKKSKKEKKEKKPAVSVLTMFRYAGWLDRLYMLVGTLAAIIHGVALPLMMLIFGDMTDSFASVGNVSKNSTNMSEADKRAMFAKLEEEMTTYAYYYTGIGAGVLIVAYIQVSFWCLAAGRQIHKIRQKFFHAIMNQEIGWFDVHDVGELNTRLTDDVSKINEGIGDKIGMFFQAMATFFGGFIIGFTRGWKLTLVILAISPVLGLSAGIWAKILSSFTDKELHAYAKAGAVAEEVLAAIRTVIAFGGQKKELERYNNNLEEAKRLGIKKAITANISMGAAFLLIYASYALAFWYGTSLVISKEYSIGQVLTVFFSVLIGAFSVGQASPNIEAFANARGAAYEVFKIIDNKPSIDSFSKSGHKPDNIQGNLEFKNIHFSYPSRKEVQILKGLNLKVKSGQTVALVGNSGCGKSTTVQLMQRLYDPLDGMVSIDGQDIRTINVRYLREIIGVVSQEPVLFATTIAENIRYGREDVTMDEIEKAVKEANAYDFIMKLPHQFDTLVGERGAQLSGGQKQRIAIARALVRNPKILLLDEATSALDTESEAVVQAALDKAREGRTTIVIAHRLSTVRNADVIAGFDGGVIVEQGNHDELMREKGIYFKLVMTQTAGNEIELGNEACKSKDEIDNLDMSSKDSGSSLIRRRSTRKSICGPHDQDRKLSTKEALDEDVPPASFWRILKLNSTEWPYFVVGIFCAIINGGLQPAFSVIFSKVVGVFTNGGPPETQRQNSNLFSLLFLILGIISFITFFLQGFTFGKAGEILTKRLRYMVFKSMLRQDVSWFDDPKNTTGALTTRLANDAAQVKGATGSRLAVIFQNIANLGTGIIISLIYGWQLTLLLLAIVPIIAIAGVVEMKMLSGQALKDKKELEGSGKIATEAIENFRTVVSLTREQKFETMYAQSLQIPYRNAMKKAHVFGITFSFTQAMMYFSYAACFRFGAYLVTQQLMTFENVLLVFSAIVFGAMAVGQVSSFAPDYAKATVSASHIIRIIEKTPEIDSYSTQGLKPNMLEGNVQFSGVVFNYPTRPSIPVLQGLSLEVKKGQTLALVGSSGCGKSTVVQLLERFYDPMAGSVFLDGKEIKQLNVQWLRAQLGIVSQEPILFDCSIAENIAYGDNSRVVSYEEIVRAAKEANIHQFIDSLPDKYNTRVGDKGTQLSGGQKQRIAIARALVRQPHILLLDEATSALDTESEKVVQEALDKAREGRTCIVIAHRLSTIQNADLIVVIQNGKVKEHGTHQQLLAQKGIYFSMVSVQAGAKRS
compound,measurement,value
COc1cccc2c1C(=O)c1c(O)c3c(c(O)c1C2=O)C[C@@](O)(C(=O)CO)C[C@@H]3O[C@H]1C[C@H](N)[C@H](O)[C@H](C)O1 [DOXORUBICIN],Activity,substrate [+]
